ChEMBL document CHEMBL1127481, “Adenosine deaminase inhibitors. Synthesis and biological evaluation of 4-amino-1-(2(S)-hydroxy-3(R)-nonyl)-1H-imidazo[4,5-c]pyridine (3-deaza-(+)-EHNA) and certain C1' derivatives” (J Med Chem, 1994)

Target: T1, Adenosine deaminase (Bos taurus, UniProt P56658)
T1 sequence (P56658 whole entry): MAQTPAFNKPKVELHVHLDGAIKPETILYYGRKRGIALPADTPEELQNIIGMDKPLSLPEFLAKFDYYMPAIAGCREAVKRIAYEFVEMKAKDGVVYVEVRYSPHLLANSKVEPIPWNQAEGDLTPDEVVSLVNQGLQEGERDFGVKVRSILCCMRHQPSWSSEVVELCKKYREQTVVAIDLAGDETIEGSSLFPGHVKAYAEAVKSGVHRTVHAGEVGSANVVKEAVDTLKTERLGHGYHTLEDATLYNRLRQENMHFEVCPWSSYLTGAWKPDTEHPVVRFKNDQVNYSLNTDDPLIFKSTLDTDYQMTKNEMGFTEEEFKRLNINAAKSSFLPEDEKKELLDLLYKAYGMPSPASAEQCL
Assay: Compound was tested for the inhibition of adenosine deaminase from calf intestinal mucosa

Structure (SMILES)	Ki [nM]
CCCCCC[C@H]([C@@H](O)CF)n1cnc2c(N)nccc21	4.7
CCCCCC[C@H]([C@H](C)O)n1cnc2c(N)nccc21	6.2
CCCCCC[C@H]([C@@H](O)CO)n1cnc2c(N)nccc21	497
